Measured values reported in patent publication US7863315B2, “2-indolinone derivatives as selective histone deacetylase inhibitors” (Shenzhen Chipscreen Biosciences, Ltd., priority 2008, dated 2011).

Assays:
Format in all cases: cell-based
[1] = test system: HDAC class I (p21 reporter gene); assay: HDAC subtype reporter gene assay, p21-promoter luciferase in HeLa cells; conditions: Homo sapiens, M-HeLa, read-out: % of SAHA Response for HDAC class I at 10 μM (p21 reporter gene), 24 hours
Description: (§1) Measurement of inhibition of HDAC subtypes activity in cells by reporter gene assay: HDAC subtype selectivity inhibition assay of tested compounds was carried out by several reporter gene assays experiments. Briefly, HeLa cells were seeded in 96-well plates the day before transfection to give a confluence of 50-80%. Cells were transfected with one of reporter gene plasmids containing a promoter sequences or response elements upstream of a luciferase gene construct using FuGene6 transfection reagent according to the manufacturer's instructions (Roche). The promoters or response elements including p21-promoter, gdf11-promoter, MEF-binding element (MEF2), Nur77-promoter were fused upstream to the luciferase gene reporter construct. For normalizing the transfection efficiency, a GFP expression plasmid was cotransfected. Cells were allowed to express protein for 24 hours followed by addition of individual compounds or the vehicle (DMSO). 24 hours later, the cells were harvested and the luciferase assays were performed using the luciferase assay kit according to the manufacturer's instructions (Promega). To normalize the data from the luciferase assays, GFP activity from transfected cells was measured in a microtiter-plate reading fluorimeter capable of excitation at a wavelength at 485 nm and detection of emitted light at 527 nm.

[2] = test system: HDAC4/5 (MEF2 reporter gene); assay: HDAC subtype reporter gene assay, MEF-binding element (MEF2) luciferase in HeLa cells; conditions: Homo sapiens, M-HeLa, read-out: % of SAHA Response for HDAC4/5 at 10 μM (MEF2 reporter gene), 24 hours
Description: as §1

[3] = test system: HDAC7 (Nur77 reporter gene); assay: HDAC subtype reporter gene assay, Nur77-promoter luciferase in HeLa cells; conditions: Homo sapiens, M-HeLa, read-out: % of SAHA Response for HDAC7 at 10 μM (Nur77 reporter gene), 24 hours
Description: as §1

lysine acetylation = assay: ELISA assay of acetylation of lysine in HeLa cells; conditions: Homo sapiens, M-HeLa, 24 hours
Source text: Measurement of acetylation activity in cells on substrates:
ELISA Assay of Acetylation of Lysine
This assay is used to measure in vivo inhibition of HDAC6 in a cytoblot assay.
Materials and Reagent: • 1. 24-well tissue culture • 2. DMEM Medium containing 10% FBS • 3. 96-well white plate • 4. HeLa cell line • 5. M-PER Mammalian Protein Extraction Reagent (Pierce) • 6. Bradford assay reagent • 7. Acetylated-lysine polyclonal Antibody (Cell Signaling) • 8. HRP-labeled anti-rabbit IgG (Upstate) • 9. Coating Buffer: 15 mM Na2CO3, 35 mM NaHCO3 (pH 9.6) • 10. 10×PBS: 0.58M Na2HPO4, 0.17M NaH2PO4, 0.68M NaCl (pH 7.4) • 11. Wash Buffer:1×PBS containing 0.05% Tween-20 (PBST) • 12. Blocking Buffer:10 mg/ml bocine serum albumin (BSA) in PBS • 13. Antibody Dilution Buffer: 5 mg/ml BSA in PBST • 14. Enhanced chemiluminescence (ECL) (Amersham)
Procedure for performing the assay in 96-well plate: • 1. HeLa cells were seeded at a density of 60000 cells/500 μl/well in 24-well plate and incubated at 37° C. for 24 hours. • 2. Compounds were added and incubated for 24 hours at 37° C. • 3. Culture medium was removed, then washes the cells twice with ice-cold PBS. • 4. Add 100 μl/well of Protein Extraction Reagent and gently shake the mixture for 5 minutes. • 5. Collect the lysate to a 96-well plate respectively. Determine the concentration of protein by Bradford assay. • 6. Coat the wells of a 96-well white plate with 100 μl/well of 2.5 μg whole cell protein in Coating Buffer by incubating overnight at 4° C. • 7. Discard the uncoated proteins and wash the coated wells three times with 200 μl/well of PBST. • 8. Block coated wells by incubating the plate with 200 μl/well of Blocking Buffer for 1 hour at 37° C. • 9. Wells were aspirated and washed three times with 200 μl/well of PBST. • 10. After aspirating, 50 μl/well of Antibody Dilution Buffer containing acetylated-lysine polyclonal antibody (1:1000) were added to each well and incubated for 2 hour at 37° C. • 11. Wells were aspirated and washed three times with 200 μl/well of PBST. • 12. 50 μl/well of Antibody Dilution Buffer containing HRP-labeled anti-rabbit IgG (1:2000) were added to each well and incubated for 2 hour at 37° C. • 13. Wells were aspirated and washed three times with 200 μl/well of PBST. • 14. Wells were washed three times with 200 μl/well of purified water. • 15. Add 50 μl/well of ECL mixture, then read the plates on the plate reader.

[4] = test system: HDAC3 (gdf11 reporter gene); assay: HDAC subtype reporter gene assay, gdf11-promoter luciferase in HeLa cells; conditions: Homo sapiens, M-HeLa, read-out: % of SAHA Response for HDAC3 at 10 μM (gdf11 reporter gene), 24 hours
Description: as §1

[5] = test system: A549 human lung cancer cell line; assay: Anti-cell proliferation (MTS), A549; conditions: 72 hours
Description: (§2) Measurement of in vivo cell proliferation:
(§3) Tumor cells were trypsinized and plated into 96-well plates at 3,000 per well and incubated in complete medium with 10% FBS for 24 hours. Compounds were added over a final concentration range of 100 μmol/L to 100 nmol/L in 0.1% DMSO and incubated for 72 hours in complete medium. The effects on proliferation were determined by addition of MTS reagent (Promega) according to the instruction, incubation for 2 hours at 37° C. in CO2 incubator, and record the absorbance at 490 nm using an ELISA plate reader.

[6] = test system: Hut-78 human T lymphoma cell line; assay: Anti-cell proliferation (MTS), Hut-78; conditions: HuT78, 72 hours
Description: as §2, §3

[7] = test system: HeLa human cervical cancer cell line; assay: Anti-cell proliferation (MTS), HeLa; conditions: 72 hours
Description: as §2, §3

[8] = test system: HL60 human leukemia cell line; assay: Anti-cell proliferation (MTS), HL60; conditions: HL-60, 72 hours
Description: as §2, §3

## Cc1[nH]c(/C=N/N=C2\C(=O)Nc3ccc(F)cc32)c(C)c1C(=O)NCCCCC(=O)Nc1ccccc1N [Example 7, 5-(5-(((5-fluoro-2-oxoindolin-3-ylidene)hydrazono)methyl)-2,4-dimethyl-1H-pyrrole-3-carboxamido)-N-(2-aminophenyl)pentanamide]
[1]
  Emax at 10 µM: 11%
[2]
  Emax at 10 µM: 23%
[3]
  Emax at 10 µM: 3%
Lysine acetylation
  fold induction at 10 µM: 1.58
[4]
  Emax at 10 µM: 7%

## Cc1[nH]c(/C=N/N=C2\C(=O)Nc3ccc(F)cc32)c(C)c1C(=O)NCCCCC(=O)Nc1ccc(F)cc1N [Example 8, 5-(5-(((5-fluoro-2-oxoindolin-3-ylidene)hydrazono)methyl)-2,4-dimethyl-1H-pyrrole-3-carboxamido)-N-(2-amino-4-fluorophenyl)pentanamide]
[1]
  Emax at 10 µM: 7%
[2]
  Emax at 10 µM: 23%
[3]
  Emax at 10 µM: 4%
Lysine acetylation
  fold induction at 10 µM: 2.01
[4]
  Emax at 10 µM: 5%

## Cc1[nH]c(/C=N/N=C2\C(=O)Nc3ccc(F)cc32)c(C)c1C(=O)NCCCCCC(=O)NO [Example 11, 6-(5-(((5-fluoro-2-oxoindolin-3-ylidene)hydrazono)methyl)-2,4-dimethyl-1H-pyrrole-3-carboxamido)-N-hydroxyhexanamide]
[1]
  Emax at 10 µM: 52%
[2]
  Emax at 10 µM: 27%
[3]
  Emax at 10 µM: 9%
Lysine acetylation
  fold induction at 10 µM: 1.87
[4]
  Emax at 10 µM: 49%

## Cc1[nH]c(/C=N/N=C2\C(=O)Nc3ccc(F)cc32)c(C)c1C(=O)NCCCCCC(=O)Nc1ccc(F)cc1N [Example 12, 6-(5-(((5-fluoro-2-oxoindolin-3-ylidene)hydrazono)methyl)-2,4-dimethyl-1H-pyrrole-3-carboxamido)-N-(2-amino-4-fluorophenyl)hexanamide]
[1]
  Emax at 10 µM: 9%
[2]
  Emax at 10 µM: 35%
[3]
  Emax at 10 µM: 6%
Lysine acetylation
  fold induction at 10 µM: 1.84
[4]
  Emax at 10 µM: 6%

## Cc1[nH]c(/C=N/N=C2\C(=O)Nc3ccc(F)cc32)c(C)c1C(=O)NCCCCCC(=O)Nc1ccccc1N [Example 13, 6-(5-(((5-fluoro-2-oxoindolin-3-ylidene)hydrazono)methyl)-2,4-dimethyl-1H-pyrrole-3-carboxamido)-N-(2-aminophenyl)hexanamide]
[1]
  Emax at 10 µM: 18%
[2]
  Emax at 10 µM: 18%
[3]
  Emax at 10 µM: 5%
Lysine acetylation
  fold induction at 10 µM: 3.08
[4]
  Emax at 10 µM: 13%

## Cc1[nH]c(/C=N/N=C2\C(=O)Nc3ccc(F)cc32)c(C)c1C(=O)NCCCCCCCC(=O)NO [Example 26, 8-(5-(((5-fluoro-2-oxoindolin-3-ylidene)hydrazono)methyl)-2,4-dimethyl-1H-pyrrole-3-carboxamido)-N-hydroxyoctanamide]
[5]
  GI50: 35.5 µM
[6]
  GI50: 14.1 µM
[7]
  GI50: 25.7 µM
[1]
  Emax at 10 µM: 53%
[2]
  Emax at 10 µM: 20%
[3]
  Emax at 10 µM: 11%
[8]
  GI50: 9.33 µM
Lysine acetylation
  fold induction at 10 µM: 2.42
[4]
  Emax at 10 µM: 38%

## O=C(CCCCCNC(=O)c1ccc(/C=N/N=C2\C(=O)Nc3ccc(F)cc32)cc1)NO [Example 31, 6-(4-(((5-fluoro-2-oxoindolin-3-ylidene)hydrazono)methyl)benzamido)-N-hydroxyhexanamide]
[1]
  Emax at 10 µM: 39%
[2]
  Emax at 10 µM: 30%
[3]
  Emax at 10 µM: 8%
Lysine acetylation
  fold induction at 10 µM: 1.67
[4]
  Emax at 10 µM: 36%

## Nc1ccccc1NC(=O)CCCCCNC(=O)c1ccc(/C=N/N=C2\C(=O)Nc3ccc(F)cc32)cc1 [Example 32, 6-(4-(((5-fluoro-2-oxoindolin-3-ylidene)hydrazono)methyl)benzamido)-N-(2-aminophenyl)hexanamide]
[1]
  Emax at 10 µM: 17%
[2]
  Emax at 10 µM: 28%
[3]
  Emax at 10 µM: 5%
Lysine acetylation
  fold induction at 10 µM: 1.32
[4]
  Emax at 10 µM: 12%

## Nc1ccccc1NC(=O)CCCCCCCNC(=O)c1ccc(/C=N/N=C2\C(=O)Nc3ccc(F)cc32)cc1 [Example 35, 8-(4-(((5-fluoro-2-oxoindolin-3-ylidene)hydrazono)methyl)benzamido)-N-(2-aminophenyl)octanamide]
[1]
  Emax at 10 µM: 56%
[2]
  Emax at 10 µM: 46%
[3]
  Emax at 10 µM: 13%
Lysine acetylation
  fold induction at 10 µM: 1.04
[4]
  Emax at 10 µM: 36%

## O=C(CCCCCNC(=O)c1ccc(/C=C2\C(=O)Nc3ccc(F)cc32)cc1)NO [Example 41, 6-(4-((5-fluoro-2-oxoindolin-3-ylidene)methyl)benzamido)-N-hydroxyhexanamide]
[1]
  Emax at 10 µM: 13%
[2]
  Emax at 10 µM: 21%
[3]
  Emax at 10 µM: 4%
Lysine acetylation
  fold induction at 10 µM: 1.6
[4]
  Emax at 10 µM: 11%

## Nc1cc(F)ccc1NC(=O)CCCCCNC(=O)c1cccc(/C=C2\C(=O)Nc3ccc(F)cc32)c1 [Example 45, 6-(3-((5-fluoro-2-oxoindolin-3-ylidene)methyl)benzamido)-N-(2-amino-4-fluorophenyl)hexanamide]
[1]
  Emax at 10 µM: 19%
[2]
  Emax at 10 µM: 44%
[3]
  Emax at 10 µM: 16%
Lysine acetylation
  fold induction at 10 µM: 1.17
[4]
  Emax at 10 µM: 12%

## O=C(CCCCCNC(=O)c1cccc(/C=C2\C(=O)Nc3ccc(F)cc32)c1)NO [Example 46, 6-(3-((5-fluoro-2-oxoindolin-3-ylidene)methyl)benzamido)-N-hydroxyhexanamide]
[1]
  Emax at 10 µM: 15%
[2]
  Emax at 10 µM: 27%
[3]
  Emax at 10 µM: 4%
Lysine acetylation
  fold induction at 10 µM: 1.16
[4]
  Emax at 10 µM: 10%

## Nc1ccccc1NC(=O)CCCCNC(=O)c1cccc(/C=C2\C(=O)Nc3ccc(F)cc32)c1 [Example 49, 5-(3-((5-fluoro-2-oxoindolin-3-ylidene)methyl)benzamido)-N-(2-aminophenyl)pentanamide]
[1]
  Emax at 10 µM: 18%
[2]
  Emax at 10 µM: 32%
[3]
  Emax at 10 µM: 8%
Lysine acetylation
  fold induction at 10 µM: 1.02
[4]
  Emax at 10 µM: 11%

## O=C(CCCCNC(=O)c1cccc(/C=C2\C(=O)Nc3ccc(F)cc32)c1)NO [Example 51, 5-(3-((5-fluoro-2-oxoindolin-3-ylidene)methyl)benzamido)-N-hydroxypentanamide]
[1]
  Emax at 10 µM: 18%
[2]
  Emax at 10 µM: 33%
[3]
  Emax at 10 µM: 3%
Lysine acetylation
  fold induction at 10 µM: 1.31
[4]
  Emax at 10 µM: 12%

## Nc1cc(F)ccc1NC(=O)CCCCCCCNC(=O)c1cccc(/C=C2\C(=O)Nc3ccc(F)cc32)c1 [Example 55, 8-(3-((5-fluoro-2-oxoindolin-3-ylidene)methyl)benzamido)-N-(2-amino-4-fluorophenyl)octanamide]
[1]
  Emax at 10 µM: 10%
[2]
  Emax at 10 µM: 36%
[3]
  Emax at 10 µM: 9%
Lysine acetylation
  fold induction at 10 µM: 1.12
[4]
  Emax at 10 µM: 6%
